Data reported in PMC10935199, “Rosmarinic Acid Present in Lepechinia floribunda and Lepechinia meyenii as a Potent Inhibitor of the Adenylyl Cyclase gNC1 from Giardia lamblia” (Plants, 2024).

Target: T1, adenylyl cyclase gNC1 (Giardia nucleotidyl cyclase 1)
T1 construct: catalytic domain of gNC1 (construct gNC1-301)
Assay: adenylyl cyclase assay on enriched gNC1-301, cAMP by radiobinding protein assay; ATP kinetics
Type: biochemical, Giardia intestinalis

O=C(/C=C/c1ccc(O)c(O)c1)O[C@H](Cc1ccc(O)c(O)c1)C(=O)O [compound 3, rosmarinic acid]
IC50: 10.1 ± 1.3 µM
